According to US7138361B2, “Herbicidal heterocycles” (E. I. du Pont de Nemours and Company, priority 2000, dated 2006):

Key:
Assay type in all cases: in vivo
[1] = test system: morningglory (Ipomoea hederacea); experiment: Test C preemergence
Excerpt: (§1) Seeds of plant species selected from bermudagrass (Cynodon dactylon), Surinam grass (Brachiaria decumbens), cocklebur (Xanthium strumarium), corn (Zea mays), crabgrass (Digitaria sanguinalis), woolly cupgrass (Eriochloa villosa), giant foxtail (Setaria faberii), goosegrass (Eleusine indica), johnsongrass (Sorghum halepense), kochia (Kochia scoparia), lambsquarters (Chenopodium album), morningglory (Ipomoea hederacea), yellow nutsedge (Cyperus esculentus), pigweed (Amaranthus retroflexus), common ragweed (Ambrosia elatior), soybean (Glycine max) and velvetleaf (Abutilon theophrasti) were planted and treated preemergence with test chemicals formulated in a non-phytotoxic solvent mixture which included a surfactant.
(§2) At the same time, plants selected from these crop and weed species and also winter barley (Hordeum vulgare), blackgrass (Alopecurus myosuroides), canary grass (Phalaris minor), chickweed (Stellaria media), downy brome (Bromus tectorum), green foxtail (Setaria viridis), Italian ryegrass (Lolium multiflorum), wheat (Triticum aestivum), wild oat (Avena fatua) and windgrass (Apera spica-venti) were treated with postemergence applications of some of the test chemicals formulated in the same manner. Plants ranged in height from 2 to 18 cm (1- to 4-leaf stage) for postemergence treatments. Plant species in the flooded paddy test consisted of rice (Oryza saliva), smallflower flatsedge (Cyperus difformis), duck salad (Heteranthera limosa) and barnyardgrass (Echinochloa crus-galli) grown to the 2-leaf stage for testing. Treated plants and controls were maintained in a greenhouse for 12 to 14 days, after which time all species were compared to controls and visually evaluated. Plant response ratings, summarized in Table C, are based on a scale of 0 to 100 where 0 is no effect and 100 is complete control. A dash (-) response means no test result.

corn (Zea mays) [2] = experiment: Test C preemergence; conditions: for Plant response rating (0 to 100), Corn: Rate 500 g/ha, visual evaluation after 12 to 14 days
Excerpt: as §1, §2

[3] = test system: bermudagrass (Cynodon dactylon); experiment: Test C preemergence; conditions: for Plant response rating (0 to 100 where 0 is no effect and 100 is complete control), Bermudagrass: Rate 500 g/ha, visual evaluation after 12 to 14 days
Excerpt: as §1, §2

Sunflower [4] = experiment: Test C preemergence; conditions: Rate 125 g/ha; scale 0 to 100, 0 no effect, 100 complete control
Excerpt: as §1, §2

[5] = test system: yellow nutsedge (Cyperus esculentus); experiment: Test C preemergence; conditions: for Plant response rating (0 to 100), Nutsedge: Rate 500 g/ha, visual evaluation after 12 to 14 days
Excerpt: as §1, §2

[6] = test system: velvetleaf (Abutilon theophrasti); experiment: Test C preemergence; conditions: for Plant response rating (0 to 100), Velvetleaf: Rate 500 g/ha, visual evaluation after 12 to 14 days
Excerpt: as §1, §2

kochia (Kochia scoparia) = experiment: Test C preemergence; conditions: for Plant response rating (0 to 100), Kochia: Rate 500 g/ha, visual evaluation after 12 to 14 days
Excerpt: as §1, §2

[7] = test system: johnsongrass (Sorghum halepense); experiment: Test C preemergence; conditions: for Plant response rating (0 to 100), Johnsongrass: Rate 500 g/ha, visual evaluation after 12 to 14 days
Excerpt: as §1, §2

[8] = test system: giant foxtail (Setaria faberii); experiment: Test C preemergence; conditions: for Plant response rating (0 to 100), Foxtail, Giant: Rate 500 g/ha, visual evaluation after 12 to 14 days
Excerpt: as §1, §2

[9] = test system: wheat (Triticum aestivum); experiment: Test B postemergence
In short: (§3)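 Seeds were planted and sprayed preemergence with test chemical in a non-phytotoxic solvent mixture containing surfactant; postemergence plants (2 to 18 cm, 1- to 4-leaf stage) received the same formulation. Greenhouse hold 13 to 15 days, then visual rating versus untreated controls on a 0–100 scale (0 no effect, 100 complete control).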

[10] = test system: lambsquarters (Chenopodium album); experiment: Test B postemergence
In short: as §3

corn (Zea mays) [11] = experiment: Test B postemergence
In short: as §3

[12] = test system: Surinam grass (Brachiaria decumbens); experiment: Test B postemergence
In short: as §3

wild oat (Avena fatua) = experiment: Test B postemergence
In short: as §3

[13] = test system: barnyardgrass (Echinochloa crus-galli); experiment: Test B postemergence
In short: as §3

[14] = test system: pigweed (Amaranthus retroflexus); experiment: Test B postemergence
In short: as §3

[15] = test system: blackgrass (Alopecurus myosuroides); experiment: Test B postemergence; conditions: 13 to 15 days
In short: as §3

[16] = test system: velvetleaf (Abutilon theophrasti); experiment: Test B postemergence
In short: as §3

[17] = test system: morning glory (Ipomoea hederacea); experiment: Test B postemergence
In short: as §3

[18] = test system: crabgrass (Digitaria sanguinalis); experiment: Test B postemergence; conditions: 13 to 15 days
In short: as §3

[19] = test system: giant foxtail (Setaria faberii); experiment: Test B postemergence
In short: as §3

Sunflower [20] = experiment: Test C preemergence; conditions: Rate 500 g/ha, visual evaluation after 12 to 14 days
[21] = test system: cocklebur (Xanthium strumarium); experiment: Test B postemergence
In short: as §3

[22] = Rate 125 g/ha, scale 0 to 100, 0 no effect, 100 complete control
[23] = preemergence, Rate 62 g/ha, scale 0 to 100
[24] = preemergence, Rate 250 g/ha, scale 0 to 100, 0 no effect, 100 complete control
[25] = Rate 500 g/ha, scale 0 to 100, 0 is no effect, 100 is complete control, 13 to 15 days
[26] = Rate 125 g/ha, scale 0 (no effect) to 100 (complete control), 13 to 15 days
[27] = Rate 125 g/ha, scale 0 (no effect) to 100 (complete control)
[28] = Rate 500 g/ha, scale 0 to 100, 0 is no effect, 100 is complete control

## CCCC(C)c1ccn(C2CCN(c3cccc(OC)c3)C2=O)n1 (stereo not shown) [Compound 99]
[1]; [22]
  Plant response rating, Morningglory: 20
[1]; [23]
  Plant response rating, Morningglory: 0
[1]; preemergence, Rate 500 g/ha, visual evaluation after 12 to 14 days
  Plant response rating (0 to 100), Morningglory: 20
[1]; [24]
  Plant response rating, Morningglory: 20
Corn (Zea mays) [2]; [22]
  Plant response rating, Corn: 0
Corn (Zea mays) [2]; [23]
  Plant response rating, Corn: 0
Corn (Zea mays) [2]; preemergence
  Plant response rating (0 to 100), Corn: 20
Corn (Zea mays) [2]; [24]
  Plant response rating, Corn: 0
[3]; [22]
  Plant response rating, Bermudagrass: 90
[3]; [23]
  Plant response rating, Bermudagrass: 90
[3]; preemergence
  Plant response rating (0 to 100 where 0 is no effect and 100 is complete control), Bermudagrass: 100
[3]; [24]
  Plant response rating, Bermudagrass: 100
Sunflower [4]
  Plant response rating, Sunflower: 0
[5]; [22]
  Plant response rating, Nutsedge: 0
[5]; [23]
  Plant response rating, Nutsedge: 0
[5]; preemergence
  Plant response rating (0 to 100), Nutsedge: 90
[5]; [24]
  Plant response rating, Nutsedge: 0
[6]; [22]
  Plant response rating, Velvetleaf: 0
[6]; [23]
  Plant response rating, Velvetleaf: 0
[6]; preemergence
  Plant response rating (0 to 100), Velvetleaf: 0
[6]; [24]
  Plant response rating, Velvetleaf: 0
Kochia (Kochia scoparia); [22]
  Plant response rating, Kochia: 90
Kochia (Kochia scoparia); [23]
  Plant response rating, Kochia: 80
Kochia (Kochia scoparia); preemergence
  Plant response rating (0 to 100), Kochia: 100
Kochia (Kochia scoparia); [24]
  Plant response rating, Kochia: 90
[7]; [22]
  Plant response rating, Johnsongrass: 0
[7]; [23]
  Plant response rating, Johnsongrass: 0
[7]; preemergence
  Plant response rating (0 to 100), Johnsongrass: 90
[7]; [24]
  Plant response rating, Johnsongrass: 0
[8]; [22]
  Plant response rating, Foxtail, Giant: 20
[8]; [23]
  Plant response rating, Foxtail, Giant: 10
[8]; preemergence
  Plant response rating (0 to 100), Foxtail, Giant: 70
[8]; [24]
  Plant response rating, Foxtail, Giant: 20
[9]; [25]
  Plant response rating, Wheat: 0
[10]; [25]
  Plant response rating, Lambsquarters: 70
Corn (Zea mays) [11]; [26]
  Plant response rating, Corn: 0
Corn (Zea mays) [11]; [25]
  Plant response rating, Corn: 0
[12]; [26]
  Plant response rating, Surinam grass: 0
[12]; [25]
  Plant response rating, Surinam grass: 0
Wild oat (Avena fatua); [25]
  Plant response rating, Wild Oat: 0
[13]; [26]
  Plant response rating, Barnyardgrass: 0
[13]; [25]
  Plant response rating, Barnyardgrass: 0
[14]; [25]
  Plant response rating, Pigweed: 0
[15]; [27]
  Plant response rating, Blackgrass: 0
[15]; [28]
  Plant response rating, Blackgrass: 0
[16]; [25]
  Plant response rating, Velvetleaf: 0
[17]; [25]
  Plant response rating, Morningglory: 0
[18]; [27]
  Plant response rating, Crabgrass: 0
[18]; [28]
  Plant response rating, Crabgrass: 0
[19]; [26]
  Plant response rating, Foxtail, Giant: 0
[19]; [25]
  Plant response rating, Foxtail, Giant: 0
Sunflower [20]
  Plant response rating (0 to 100), Sunflower: 0

## Cc1ccc(N2CCC(n3ccc(C(C)(C)C)n3)C2=O)cc1I (stereo not shown) [Compound 122]
[1]; [22]
  Plant response rating, Morningglory: 0
[1]; [23]
  Plant response rating, Morningglory: 0
[1]; [24]
  Plant response rating, Morningglory: 100
Corn (Zea mays) [2]; [22]
  Plant response rating, Corn: 0
Corn (Zea mays) [2]; [23]
  Plant response rating, Corn: 0
Corn (Zea mays) [2]; preemergence
  Plant response rating (0 to 100), Corn: 0
Corn (Zea mays) [2]; [24]
  Plant response rating, Corn: 0
[3]; [22]
  Plant response rating, Bermudagrass: 100
[3]; [23]
  Plant response rating, Bermudagrass: 100
[3]; preemergence
  Plant response rating (0 to 100 where 0 is no effect and 100 is complete control), Bermudagrass: 100
[3]; [24]
  Plant response rating, Bermudagrass: 100
Sunflower [4]
  Plant response rating, Sunflower: 0
[5]; [22]
  Plant response rating, Nutsedge: 0
[5]; [23]
  Plant response rating, Nutsedge: 0
[5]; preemergence
  Plant response rating (0 to 100), Nutsedge: 0
[5]; [24]
  Plant response rating, Nutsedge: 0
[6]; [22]
  Plant response rating, Velvetleaf: 10
[6]; [23]
  Plant response rating, Velvetleaf: 0
[6]; preemergence
  Plant response rating (0 to 100), Velvetleaf: 20
[6]; [24]
  Plant response rating, Velvetleaf: 20
Kochia (Kochia scoparia); [22]
  Plant response rating, Kochia: 100
Kochia (Kochia scoparia); [23]
  Plant response rating, Kochia: 100
Kochia (Kochia scoparia); preemergence
  Plant response rating (0 to 100), Kochia: 100
Kochia (Kochia scoparia); [24]
  Plant response rating, Kochia: 100
[7]; [22]
  Plant response rating, Johnsongrass: 0
[7]; [23]
  Plant response rating, Johnsongrass: 0
[7]; preemergence
  Plant response rating (0 to 100), Johnsongrass: 20
[7]; [24]
  Plant response rating, Johnsongrass: 0
[8]; [22]
  Plant response rating, Foxtail, Giant: 0
[8]; [23]
  Plant response rating, Foxtail, Giant: 0
[8]; preemergence
  Plant response rating (0 to 100), Foxtail, Giant: 0
[8]; [24]
  Plant response rating, Foxtail, Giant: 0
[9]; [22]
  Plant response rating, Wheat: 0
[10]; [22]
  Plant response rating, Lambsquarters: 90
Corn (Zea mays) [11]; [22]
  Plant response rating, Corn: 0
Corn (Zea mays) [11]; [25]
  Plant response rating, Corn: 0
[12]; [22]
  Plant response rating, Surinam grass: 0
[12]; [25]
  Plant response rating, Surinam grass: 0
Wild oat (Avena fatua); [22]
  Plant response rating, Wild Oat: 0
[13]; [22]
  Plant response rating, Barnyardgrass: 0
[13]; [25]
  Plant response rating, Barnyardgrass: 0
[14]; [22]
  Plant response rating, Pigweed: 30
[21]; [22]
  Plant response rating, Cocklebur: 30
[21]; [25]
  Plant response rating, Cocklebur: 90
[16]; [22]
  Plant response rating, Velvetleaf: 0
[17]; [22]
  Plant response rating, Morningglory: 20
[19]; [22]
  Plant response rating, Foxtail, Giant: 0
Sunflower [20]
  Plant response rating (0 to 100), Sunflower: 30
